Patent US20250092064A1, “BENZOTRIAZOLE COMPOUND” (DAIICHI SANKYO COMPANY, LIMITED, priority 2022, published 2025)
pIC50: −log10 of the molar value.

What was measured:
[1] = molecular target: binding between Nrf2 and Keap1 (Homo sapiens (Human), UniProt Q14145); assay: FP assay (in vitro): inhibition of Nrf2-Keap1 binding by fluorescence polarization; conditions: GST-fused human Keap1 (325-642) 20 nM, FITC-labeled Nrf2 peptide 10 nM, 2 hr at room temperature
[2] = Measurement test of plasma drug concentration after oral administration in rats; type: in vivo; conditions: male SD rats, 10 mg/2 mL/kg in 0.5% methylcellulose; for AUC(0-t): rat, plasma, 10 mg/kg, read-out: AUC0-24
Experimental: 10 mg/2 mL/kg of the test compound suspended in 0.5% methylcellulose solution were force-fed to Male SD rats (7 weeks old, Japan SLC). Blood was collected from the jugular vein using a syringe with heparin at 0.5, 1, 2, 4, 6, and 24 hr after administration. After blood collection, to 20 μL of centrifuged plasma was added an equal volume of acetonitrile followed by 200 μL of internal standard (IS) solution. After agitation, all the supernatant after centrifugation was filtered, and the collected filtrate was used as the assay sample. Equal volumes of the test compound solution prepared in acetonitrile were added to blank plasma, and the samples processed in the same manner as above were used as samples for the calibration curve. The prepared samples were measured using LC/MS/MS, and the area under the blood concentration-time curve (AUC) was calculated from the compound concentration in plasma.

[3] = tested on: NQO1 activity in Hepa1c1c7 cells; assay: NAD(P)H: quinone oxidoreductase-1 (NQO1) enzyme induction assay (in vitro); type: cell-based, mouse; conditions: Mus musculus, Hepa-1c1c7, NQO1 activity with 400 nM test compound as a ratio from the base without compound, about 48 hr
Summary of the method: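 Mouse Hepa1c1c7 hepatoma cells treated 48 hr with 400 nM compound (final). NQO1 activity in lysates read by absorbance at 610 nm; value is background-subtracted activity ratio versus untreated cells.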

Chain of binding between Nrf2 and Keap1 (Q14145 325-624 limits assumed): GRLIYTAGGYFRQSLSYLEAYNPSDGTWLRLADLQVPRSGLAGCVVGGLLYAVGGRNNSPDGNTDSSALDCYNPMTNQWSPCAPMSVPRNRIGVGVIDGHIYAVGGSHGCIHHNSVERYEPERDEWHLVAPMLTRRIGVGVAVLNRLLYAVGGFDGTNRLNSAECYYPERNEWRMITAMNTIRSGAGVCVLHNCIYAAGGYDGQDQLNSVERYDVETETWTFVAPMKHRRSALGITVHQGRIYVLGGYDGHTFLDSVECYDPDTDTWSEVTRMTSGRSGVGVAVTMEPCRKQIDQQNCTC

With `CC[C@@H]1CN(Cc2cc([C@H](CC(=O)O)c3ccc4c(nnn4C)c3C)cc3c2CCC3)S(=O)(=O)c2cc(Cl)cnc2O1` [Example 4, (3S)-3-(7-{[(4R)-8-Chloro-4-ethyl-1,1-dioxido-3,4-dihydro-2H-pyrido[2,3-b][1,4,5]oxathiazepin-2-yl]methyl}-2,3-dihydro-1H-inden-5-yl)-3-(1,4-dimethyl-1H-benzotriazol-5-yl)propanoic acid] the pIC50 [1] was ≥ 8.00, the “maximam plasma concentration” value [2] was 0.029 µM and the AUC(0-t) [2] was 0.05 µM·h. For the same compound, the fold induction at 0.4 µM [3] was > 5.
With `CC[C@@H]1CN(Cc2cc([C@@H](CC(=O)O)c3ccc4c(nnn4C)c3C)cc3c2CCC3)S(=O)(=O)c2cc(Cl)cnc2O1` [Example 5, (3R)-3-(7-{[(4R)-8-Chloro-4-ethyl-1,1-dioxido-3,4-dihydro-2H-pyrido[2,3-b][1,4,5]oxathiazepin-2-yl]methyl}-2,3-dihydro-1H-inden-5-yl)-3-(1,4-dimethyl-1H-benzotriazol-5-yl)propanoic acid] the pIC50 [1] was 7.52 to 8.00, the “maximam plasma concentration” value [2] was 0.006 µM and the AUC(0-t) [2] was 0.035 µM·h. The fold induction at 0.4 µM [3] was > 5.
With `CC[C@@H]1CN(Cc2cc([C@H](CC(=O)O)c3ccc4c(nnn4C)c3C)cc3ccsc23)S(=O)(=O)c2cc(Cl)cnc2O1` [Example 7, (3S)-3-(7-{[(4R)-8-Chloro-4-ethyl-1,1-dioxido-3,4-dihydro-2H-pyrido[2,3-b][1,4,5]oxathiazepin-2-yl]methyl}-1-benzothiophen-5-yl)-3-(1,4-dimethyl-1H-benzotriazol-5-yl)propanoic acid] the pIC50 [1] was ≥ 8.00, the “maximam plasma concentration” value [2] was 0.009 µM and the AUC(0-t) [2] was 0.03 µM·h. The fold induction at 0.4 µM [3] was > 5.
In the case of `CC[C@@H]1CN(Cc2cc([C@@H](CC(=O)O)c3ccc4c(nnn4C)c3C)cc3ccsc23)S(=O)(=O)c2cc(Cl)cnc2O1` [Example 8, (3R)-3-(7-{[(4R)-8-Chloro-4-ethyl-1,1-dioxido-3,4-dihydro-2H-pyrido[2,3-b][1,4,5]oxathiazepin-2-yl]methyl}-1-benzothiophen-5-yl)-3-(1,4-dimethyl-1H-benzotriazol-5-yl)propanoic acid], the pIC50 [1] was ≥ 8.00, the “maximam plasma concentration” value [2] was 0.005 µM and the AUC(0-t) [2] was 0.023 µM·h. For the same compound, the fold induction at 0.4 µM [3] was > 5.
In the case of `CC[C@@H]1CN(Cc2cc(C(CC(=O)O)c3cc(C4CC4)c4c(nnn4C)c3C)cc3[nH]ccc23)[C@@H](C)c2ncccc2O1` (stereo partly drawn) [Example 104, 3-(7-Cyclopropyl-1,4-dimethyl-1H-benzotriazol-5-yl)-3-(4-{[(2R,5S)-2-ethyl-5-methyl-2,3-dihydropyrido[2,3-f][1,4]oxazepin-4(5H)-yl]methyl}-1H-indol-6-yl)propanoic acid], the pIC50 [1] was 7.52 to 8.00 and the fold induction at 0.4 µM [3] was > 5.
With `CC[C@@H]1CN(Cc2cc([C@@H](CC(=O)O)c3cc(C4CC4)c4c(nnn4C)c3C)cc3c2CCC3)[C@@H](C)c2ncccc2O1` [Example 105, (3R)-3-(7-Cyclopropyl-1,4-dimethyl-1H-benzotriazol-5-yl)-3-(7-{[(2R,5S)-2-ethyl-5-methyl-2,3-dihydropyrido[2,3-f][1,4]oxazepin-4(5H)-yl]methyl}-2,3-dihydro-1H-inden-5-yl)propanoic acid] the pIC50 [1] was 7.52 to 8.00 and the fold induction at 0.4 µM [3] was > 5.
In the case of `CC[C@@H]1CN(Cc2cc([C@H](CC(=O)O)c3cc(C4CC4)c4c(nnn4C)c3C)cc3c2CCC3)[C@@H](C)c2ncccc2O1` [Example 106, (3S)-3-(7-Cyclopropyl-1,4-dimethyl-1H-benzotriazol-5-yl)-3-(7-{[(2R,5S)-2-ethyl-5-methyl-2,3-dihydropyrido[2,3-f][1,4]oxazepin-4(5H)-yl]methyl}-2,3-dihydro-1H-inden-5-yl)propanoic acid], the pIC50 [1] was ≥ 8.00 and the fold induction at 0.4 µM [3] was > 5.
In the case of `CC[C@@H]1CN(Cc2cc(C(CC(=O)O)c3cc(C4CC4)c4c(nnn4C)c3C)cc3c2OCC3)[C@@H](C)c2ncccc2O1` (stereo partly drawn) [Example 107, 3-(7-Cyclopropyl-1,4-dimethyl-1H-benzotriazol-5-yl)-3-(7-{[(2R,5S)-2-ethyl-5-methyl-2,3-dihydropyrido[2,3-f][1,4]oxazepin-4(5H)-yl]methyl}-2,3-dihydro-1-benzofuran-5-yl)propanoic acid], the pIC50 [1] was 7.52 to 8.00 and the fold induction at 0.4 µM [3] was > 5.
With `CC[C@@H]1CN(Cc2cc([C@H](CC(=O)O)c3cc(OC(F)F)c4c(nnn4C)c3C)cc3ccsc23)S(=O)(=O)c2cc(Cl)cnc2O1` [Example 108, (3S)-3-(7-{[(4R)-8-Chloro-4-ethyl-1,1-dioxido-3,4-dihydro-2H-pyrido[2,3-b][1,4,5]oxathiazepin-2-yl]methyl}-1-benzothiophen-5-yl)-3-[7-(difluoromethoxy)-1,4-dimethyl-1H-benzotriazol-5-yl]propanoic acid] the pIC50 [1] was 7.00 to 7.52 and the fold induction at 0.4 µM [3] was > 5.
With `CC[C@@H]1CN(Cc2cc(C(CC(=O)O)c3cc(C4CC4)c4c(nnn4C)c3C)cc3ccoc23)[C@@H](C)c2ncccc2O1` (stereo partly drawn) [Example 109, 3-(7-Cyclopropyl-1,4-dimethyl-1H-benzotriazol-5-yl)-3-(7-{[(2R,5S)-2-ethyl-5-methyl-2,3-dihydropyrido[2,3-f][1,4]oxazepin-4(5H)-yl]methyl}-1-benzofuran-5-yl)propanoic acid] the pIC50 [1] was 7.00 to 7.52 and the fold induction at 0.4 µM [3] was > 5.
With `CC[C@@H]1CN(Cc2cc(C(CC(=O)O)c3cc(C4CC4)c4c(nnn4C)c3C)cc3ccoc23)S(=O)(=O)c2cc(Cl)cnc2O1` (stereo partly drawn) [Example 110, 3-(7-{[(4R)-8-Chloro-4-ethyl-1,1-dioxido-3,4-dihydro-2H-pyrido[2,3-b][1,4,5]oxathiazepin-2-yl]methyl}-1-benzofuran-5-yl)-3-(7-cyclopropyl-1,4-dimethyl-1H-benzotriazol-5-yl)propanoic acid] the pIC50 [1] was 7.00 to 7.52 and the fold induction at 0.4 µM [3] was > 5.
In the case of `CCOc1ccc2c(n1)O[C@H](CC)CN(Cc1cc([C@H](CC(=O)O)c3ccc4c(nnn4C)c3C)cc3ccsc13)S2(=O)=O` [Example 111, (3S)-3-(1,4-Dimethyl-1H-benzotriazol-5-yl)-3-(7-{[(4R)-7-ethoxy-4-ethyl-1,1-dioxido-3,4-dihydro-2H-pyrido[2,3-b][1,4,5]oxathiazepin-2-yl]methyl}-1-benzothiophen-5-yl)propanoic acid], the pIC50 [1] was ≥ 8.00 and the fold induction at 0.4 µM [3] was 3 to 5.
With `CCOc1ccc2c(n1)O[C@H](CC)CN(Cc1cc([C@@H](CC(=O)O)c3ccc4c(nnn4C)c3C)cc3ccsc13)S2(=O)=O` [Example 112, (3R)-3-(1,4-Dimethyl-1H-benzotriazol-5-yl)-3-(7-{[(4R)-7-ethoxy-4-ethyl-1,1-dioxido-3,4-dihydro-2H-pyrido[2,3-b][1,4,5]oxathiazepin-2-yl]methyl}-1-benzothiophen-5-yl)propanoic acid] the pIC50 [1] was ≥ 8.00 and the fold induction at 0.4 µM [3] was 3 to 5.
